Common to all, as to format: cell-based
In assay [1] the test system is MV4-11 cells. The experiment in a line: MV4-11 cellular proliferative assay, Assay Format B (CTG 2.0, 168 h). The conditions noted are these: Homo sapiens, Assay format B, 168 h, read-out: IC50 (MV4-11 cellular proliferative assay). How it is done: MV4-11 cells at a confluency of ~50-80% was used for cell growth assay. 600 cells/well in a 384-well opaque cell culture plate (6007680; Perkin Elmer) were seeded in 40 μL of complete medium (IMDM+10% FBS+1× Penicillin-Streptomycin). Cells were incubated overnight at 37° C., 5% CO2. 10 mM DMSO stocks were prepared, cells were treated with 10 concentrations of test compounds starting from 1 uM or 100 nM, 3-fold dilution in 10 uL (5× concentration) of complete medium. Final DMSO concentration was 0.3%. Culture plates were centrifuged at 40×g, 30s. Cells were incubated with compounds for 168 h (7 days). After 7 days, 20 uL CTG 2.0 reagent (G9242; Promega) was added per well and luminescence reading was taken in Envision Xcite 2105 multimode plate reader. Data was analyzed in GraphPad Prism 10.0 and data was shown as % viability with respect to DMSO control and dose-response curves were generated using four parameter logistic regression. Assay quality was determined by z-factor calculation using positive and negative controls.

Assay [2] deals with MV4-11 cells. The assay is described as follows: MV4-11 cellular proliferative assay, Assay Format A (CellTiter-Glo, 120 h). Particulars: Homo sapiens, Assay format A, 120 h, read-out: IC50 (MV4-11 cellular proliferative assay). Here is the method:
An MV4-11 proliferation assay was used to test the ability of compounds to reduce cell viability. MV4-11 cells (ATCC #CRL9591) were grown in IMDM medium (11510596, Gibco) supplemented with 10% fetal bovine serum (F7524, Gibco) and 1% Penicillin/Streptomycin (15140-122, Gibco) at 37° C. with 5% CO2. Cells were seeded in 384-well Elplasia plates (4447, Corning) at a density of 50 cells/well and treated with vehicle (DMSO) or compounds (10 serial semi-log dilutions, 30 μM as top concentration).
After 120 hours of treatment, cells were incubated for 10 min at RT with the CellTiter-Glo (CTG) reagent (G7571, Promega). Measurement of the luminescence signal was performed on a microplate reader (Ensight, PerkinElmer). CTG reagent measures the amount of ATP, which is directly proportional to the number of cells, to determine the number of viable cells in culture.
The data were analysed as follows:
[formula] • where x is the measured raw signal value of a well, (cr) is the median of the measured signal values for the Central Reference (DMSO) wells on a plate, (sr) is the median of the measured signal values for the Scale Reference (reference compound) wells on a plate.
[formula] • where the experimental set-up assumes the Hill parameters in certain ranges: S0~Central Reference (CR) from normalization (=Bottom), Sinf~Scale Reference (SR) from normalization (=Top), nHill ~1, AC50~within the measured concentration range.
For orientation: In ATP-based viability assays light output follows the ATP content of the culture.

The next assay concerns the target T1, MLLT1 (Homo sapiens, UniProt Q03111).
T1 sequence (Q03111 1-559): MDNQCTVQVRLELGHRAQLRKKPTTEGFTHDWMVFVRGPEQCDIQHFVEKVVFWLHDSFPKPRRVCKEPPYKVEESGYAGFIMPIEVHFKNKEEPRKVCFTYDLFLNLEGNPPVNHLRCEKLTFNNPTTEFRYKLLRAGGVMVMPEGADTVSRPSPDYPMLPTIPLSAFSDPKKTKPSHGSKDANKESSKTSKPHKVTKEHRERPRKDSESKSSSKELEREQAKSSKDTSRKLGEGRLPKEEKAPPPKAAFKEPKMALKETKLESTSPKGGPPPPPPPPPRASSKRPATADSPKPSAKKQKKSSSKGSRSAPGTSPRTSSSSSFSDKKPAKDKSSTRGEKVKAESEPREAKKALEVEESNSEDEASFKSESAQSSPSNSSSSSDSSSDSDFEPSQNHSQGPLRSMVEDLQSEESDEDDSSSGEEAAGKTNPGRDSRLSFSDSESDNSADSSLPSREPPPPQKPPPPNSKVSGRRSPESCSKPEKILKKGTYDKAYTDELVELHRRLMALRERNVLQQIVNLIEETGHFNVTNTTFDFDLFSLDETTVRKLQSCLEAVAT
The experiment in a line: MLLT1 degradation assay in MV4-11 cells (JESS, 24 h). Particulars: vs DMSO control. The arrangement: endogenous in cells; host or cells: MV4-11 (ATCC CRL-9591). An outline of the steps: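 MV4-11 cells treated at 1000, 100 and 10 nM (0.1% DMSO) for 24 h at 37° C; lysates (4 ug protein) run on JESS capillary immunoassay with MLLT1 and GAPDH antibodies. Peak areas give % degradation versus DMSO, binned A (≥75%) to D (<25%).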

Usually IC50 stands for the point on the concentration scale where inhibition reaches its midpoint. For `Cc1nn(CCCCCCCC#Cc2cccc3c2CN([C@H]2CCC(=O)NC2=O)C3=O)c2cc(C(=O)Nc3cc4[nH]c([C@H]5CCCN5C)c(Cl)c4cn3)ccc12` (relative stereo) [Example 100, N-(3-chloro-2-((R)-1-methylpyrrolidin-2-yl)-1H-pyrrolo[3,2-c]pyridin-6-yl)-1-(9-(2-((rel-S)-2,6-dioxopiperidin-3-yl)-1-oxoisoindolin-4-yl)non-8-yn-1-yl)-3-methyl-1H-indazole-6-carboxamide], the IC50 with MV4-11 cells [1] was below 100 nM.
With `Cc1nn(CCCCCC#Cc2cccc3c2C(=O)N(C2CCC(=O)NC2=O)C3=O)c2cc(C(=O)Nc3cc4[nH]c([C@H]5CCCN5C)cc4cn3)ccc12` (stereo partly drawn) [Example 33, 1-(7-(2-(2,6-dioxopiperidin-3-yl)-1,3-dioxoisoindolin-4-yl)hept-6-yn-1-yl)-3-methyl-N-(2-((R)-1-methylpyrrolidin-2-yl)-1H-pyrrolo[3,2-c]pyridin-6-yl)-1H-indazole-6-carboxamide], the IC50 with MV4-11 cells [2] was below 100 nM. At MLLT1, the “MLLT1% Degradation @ 0.01 μM” value is recorded as “B (Category B: 50%≤B<75% degradation)”, the “MLLT1% Degradation @ 0.1 μM” value is “B (Category B: 50%≤B<75% degradation)” and the “MLLT1% Degradation @ 1 μM” value is listed as “A (Category A: A≥75% degradation)”.
Turning to `CN1CCC[C@@H]1c1cc2cnc(NC(=O)c3ccc4c(cnn4CCCCCCCCNc4cccc5c4C(=O)N(C4CCC(=O)NC4=O)C5=O)c3)cc2[nH]1` (stereo partly drawn) [Example 36, 1-(8-((2-(2,6-dioxopiperidin-3-yl)-1,3-dioxoisoindolin-4-yl)amino)octyl)-N-(2-((R)-1-methylpyrrolidin-2-yl)-1H-pyrrolo[3,2-c]pyridin-6-yl)-1H-indazole-5-carboxamide], in the assay on MV4-11 cells [2], the IC50 was below 100 nM. On MLLT1, the “MLLT1% Degradation @ 0.01 μM” value is recorded as “A (Category A: A≥75% degradation)”, the “MLLT1% Degradation @ 0.1 μM” value is “A (Category A: A≥75% degradation)” and the “MLLT1% Degradation @ 1 μM” value is reported as “A (Category A: A≥75% degradation)”.
Regarding `CN1CCC[C@@H]1c1cc2cnc(NC(=O)c3ccc4c(cnn4CCCCCCCC#Cc4cccc5c4CN(C4CCC(=O)NC4=O)C5=O)c3)cc2[nH]1` (stereo partly drawn) [Example 38, 1-(9-(2-(2,6-dioxopiperidin-3-yl)-1-oxoisoindolin-4-yl)non-8-yn-1-yl)-N-(2-((R)-1-methylpyrrolidin-2-yl)-1H-pyrrolo[3,2-c]pyridin-6-yl)-1H-indazole-5-carboxamide], in the assay with MV4-11 cells [2], the IC50 is below 100 nM. At MLLT1, the “MLLT1% Degradation @ 0.01 μM” value is reported as “B (Category B: 50%≤B<75% degradation)”, the “MLLT1% Degradation @ 0.1 μM” value was “A (Category A: A≥75% degradation)” and the “MLLT1% Degradation @ 1 μM” value is “B (Category B: 50%≤B<75% degradation)”.
In the case of `Cc1nn(CCCCCCCC#Cc2cccc(C(=O)N[C@H]3CCC(=O)NC3=O)n2)c2cc(C(=O)Nc3cc4[nH]c([C@H]5CCCN5C)cc4cn3)ccc12` [Example 42, 1-(9-(6-(((S)-2,6-dioxopiperidin-3-yl)carbamoyl)pyridin-2-yl)non-8-yn-1-yl)-3-methyl-N-(2-((R)-1-methylpyrrolidin-2-yl)-1H-pyrrolo[3,2-c]pyridin-6-yl)-1H-indazole-6-carboxamide], the IC50 in the assay with MV4-11 cells [2] was below 100 nM. Also, at MLLT1, the “MLLT1% Degradation @ 0.01 μM” value was “B (Category B: 50%≤B<75% degradation)”, the “MLLT1% Degradation @ 0.1 μM” value is recorded as “A (Category A: A≥75% degradation)” and the “MLLT1% Degradation @ 1 μM” value was “A (Category A: A≥75% degradation)”.
As for `[2H]C([2H])([2H])N1CCC[C@@H]1c1cc2cnc(NC(=O)c3ccc4c(C)nn(CCCCCCCC#Cc5cccc6c5CN(C5CCC(=O)NC5=O)C6=O)c4c3)cc2[nH]1` (stereo partly drawn) [Example 44, 1-(9-(2-(2,6-dioxopiperidin-3-yl)-1-oxoisoindolin-4-yl)non-8-yn-1-yl)-3-methyl-N-(2-((R)-1-(methyl-d3)pyrrolidin-2-yl)-1H-pyrrolo[3,2-c]pyridin-6-yl)-1H-indazole-6-carboxamide], the IC50 with MV4-11 cells [2] is below 100 nM. Moreover, on MLLT1, the “MLLT1% Degradation @ 0.01 μM” value is on record as “B (Category B: 50%≤B<75% degradation)”, the “MLLT1% Degradation @ 0.1 μM” value is reported as “A (Category A: A≥75% degradation)” and the “MLLT1% Degradation @ 1 μM” value is reported as “A (Category A: A≥75% degradation)”.
Turning to `Cc1nn(CCCCCCC#Cc2cccc3c2CN(C2CCC(=O)NC2=O)C3=O)c2cc(C(=O)Nc3cc4[nH]c([C@H]5CCCN5C)cc4cn3)ccc12` (stereo partly drawn) [Example 45, 1-(8-(2-(2,6-dioxopiperidin-3-yl)-1-oxoisoindolin-4-yl)oct-7-yn-1-yl)-3-methyl-N-(2-((R)-1-methylpyrrolidin-2-yl)-1H-pyrrolo[3,2-c]pyridin-6-yl)-1H-indazole-6-carboxamide], in the assay on MV4-11 cells [2], the IC50 was below 100 nM. Also, on MLLT1, the “MLLT1% Degradation @ 0.01 μM” value is recorded as “A (Category A: A≥75% degradation)”, the “MLLT1% Degradation @ 0.1 μM” value is “A (Category A: A≥75% degradation)” and the “MLLT1% Degradation @ 1 μM” value is “A (Category A: A≥75% degradation)”.
For `Cc1nn(CCCCC#Cc2cccc3c2CN(C2CCC(=O)NC2=O)C3=O)c2cc(C(=O)Nc3cc4[nH]c([C@H]5CCCN5C)cc4cn3)ccc12` (stereo partly drawn) [Example 46, 1-(6-(2-(2,6-dioxopiperidin-3-yl)-1-oxoisoindolin-4-yl)hex-5-yn-1-yl)-3-methyl-N-(2-((R)-1-methylpyrrolidin-2-yl)-1H-pyrrolo[3,2-c]pyridin-6-yl)-1H-indazole-6-carboxamide], in the assay on MV4-11 cells [2], the IC50 is below 100 nM. Besides, at MLLT1, the “MLLT1% Degradation @ 0.01 μM” value is “A (Category A: A≥75% degradation)”, the “MLLT1% Degradation @ 0.1 μM” value is “A (Category A: A≥75% degradation)” and the “MLLT1% Degradation @ 1 μM” value is on record as “B (Category B: 50%≤B<75% degradation)”.
For the compound `Cc1nn(CCCCCN2CCN(c3cccc4c3C(=O)N(C3CCC(=O)NC3=O)C4=O)CC2)c2cc(C(=O)Nc3cc4[nH]c([C@H]5CCCN5C)cc4cn3)ccc12` (stereo partly drawn) [Example 47, 1-(5-(4-(2-(2,6-dioxopiperidin-3-yl)-1,3-dioxoisoindolin-4-yl)piperazin-1-yl)pentyl)-3-methyl-N-(2-((R)-1-methylpyrrolidin-2-yl)-1H-pyrrolo[3,2-c]pyridin-6-yl)-1H-indazole-6-carboxamide], the IC50 in the assay on MV4-11 cells [2] was below 100 nM. Moreover, at MLLT1, the “MLLT1% Degradation @ 0.01 μM” value is on record as “D (Category D: D<25% degradation)”, the “MLLT1% Degradation @ 0.1 μM” value was “D (Category D: D<25% degradation)” and the “MLLT1% Degradation @ 1 μM” value is recorded as “B (Category B: 50%≤B<75% degradation)”.
On to `CCN1CCC[C@@H]1c1cc2cnc(NC(=O)c3ccc4c(C)nn(CCCCCCCC#Cc5cccc6c5CN(C5CCC(=O)NC5=O)C6=O)c4c3)cc2[nH]1` (stereo partly drawn) [Example 48, 1-(9-(2-(2,6-dioxopiperidin-3-yl)-1-oxoisoindolin-4-yl)non-8-yn-1-yl)-N-(2-((R)-1-ethylpyrrolidin-2-yl)-1H-pyrrolo[3,2-c]pyridin-6-yl)-3-methyl-1H-indazole-6-carboxamide], for which the IC50 in the assay with MV4-11 cells [2] is below 100 nM. Further, at MLLT1, the “MLLT1% Degradation @ 0.01 μM” value is “C (Category C: 25%≤C<50% degradation)”, the “MLLT1% Degradation @ 0.1 μM” value is “B (Category B: 50%≤B<75% degradation)” and the “MLLT1% Degradation @ 1 μM” value was “A (Category A: A≥75% degradation)”.

Values taken from patent US20260199484A1, “PROTAC DEGRADERS OF MLLT1 AND/OR MLLT3” (DARK BLUE THERAPEUTICS LTD, priority 2024, published 2026).
